Assay results published in article PMC3761942 (Bioorganic & medicinal chemistry, 2013).
Entries after “also recorded” stand apart in the source; their conditions may differ.

Key:
guanase = details: in tissue cultures; cited from earlier work
[1] = Chemical stability in aqueous medium; type: physicochemical
[2] = molecular target: T1, guanase from rabbit liver (Oryctolagus cuniculus, UniProt G1T386); type: biochemical
T1 sequence (G1T386 1-454): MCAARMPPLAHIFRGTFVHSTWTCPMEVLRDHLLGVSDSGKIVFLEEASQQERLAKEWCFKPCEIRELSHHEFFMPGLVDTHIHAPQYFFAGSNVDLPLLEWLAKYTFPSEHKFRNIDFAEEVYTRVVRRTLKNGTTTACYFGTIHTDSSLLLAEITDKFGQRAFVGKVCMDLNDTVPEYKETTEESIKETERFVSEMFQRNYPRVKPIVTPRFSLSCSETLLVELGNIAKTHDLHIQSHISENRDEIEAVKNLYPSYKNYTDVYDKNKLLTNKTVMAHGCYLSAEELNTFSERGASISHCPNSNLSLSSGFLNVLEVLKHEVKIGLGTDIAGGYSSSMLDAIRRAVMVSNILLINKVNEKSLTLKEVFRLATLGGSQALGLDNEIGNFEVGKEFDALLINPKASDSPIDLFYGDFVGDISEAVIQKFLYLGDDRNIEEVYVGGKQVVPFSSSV

For `O=C1NC(O)CNc2nc[nH]c21` (centres unmarked) [Azepinomycin], which IC50 (guanase) is on record?
The IC50 was about 5 µM.

What does the source list for `O=C1NCC(O)Nc2c1ncn2Cc1ccccc1` (centres unmarked) [Compound 1, 3-Benzyl-5-hydroxy-4,5,6,7-tetrahydroimidazo[4,5-e] [1,4]diazepin-8(3H)-one]?
Stability in aqueous acidic environment ([1]; aqueous acidic environment (1N HCl)): reasonably stable; Stability under neutral conditions ([1]; neutral aqueous medium): quite unstable and decomposed; also recorded: decomposes in neutral aqueous medium over time

With `COC1CNC(=O)c2nc[nH]c2N1Cc1ccccc1` (centres unmarked) [Compound 9, 4-Benzyl-5-methoxy-4,5,6,7-tetrahydroimidazo[4,5-e][1,4]diazepin-8(3H)-one] as the molecule, how does the Ki ([2]; Ki) read?
Its Ki is about 8 µM.

Which Km ([2]; read-out: KM of enzyme with guanine as substrate, 25 °C, pH 7.4) does the source give for `Nc1nc2nc[nH]c2c(=O)[nH]1` [guanine, reference compound] here?
Its Km is 5.5 µM.
